In general, EC50 refers to the midpoint of the concentration-response curve. By IC50 is commonly meant the concentration needed to halve the response being measured. Higher therefore signals lower potency.

74 compounds from PubChem BioAssay AID179 (DTP/NCI, 2004) can be followed below.

Active and inactive are the calls of the source.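 The calls were made as follows: active = compounds giving half or more protection of infected cells from virus-caused growth loss, again on retest; inactive = the rest.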

The experiment has as its system CEM cells HIV-1 protection, formazan growth assay. As to the kind of experiment: NCI AIDS Antiviral Assay. The following applies: for IC50: measured here: growth of uninfected CEM cells. In short, it runs like this:
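Five concentrations of each compound were applied to infected and uninfected human CEM cells. Protection from HIV-1 was judged from growth measured with a soluble formazan assay.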

For the compound `NC(CCc1nc(-c2cccc([N+](=O)[O-])c2)cs1)C(=O)O` (stereo not given), the result was inactive.

For the compound `COc1ccc(CCNC(=O)Cc2ccccc2CCO)cc1OC`, the EC50 was > 200 µM and the IC50 is > 200 µM.

As for `COc1cc(OC)cc(Oc2nc3ccc(C(F)(F)F)cc3nc2-c2ccccc2)c1`, the EC50 is > 200 µM and the IC50 is > 200 µM.

`COc1ccc2[nH]c3c(c2c1)[C@H](C)C[C@@H]1C(=O)N(c2ccccc2)C(=O)[C@H]31`: the result was inactive.

For the compound `CC(=O)/C(=N\Nc1ccc(Cl)cc1)C(C)=Nc1ccc(C)cc1`, the EC50 is > 200 µM and the IC50 is 30.2 µM.

Regarding `COc1ccc2nc(NC(=O)C(=O)NNC(=O)c3ccncc3)sc2c1`, the EC50 is > 174 µM and the IC50 stood at 16.2 µM.

For the compound `NC(=O)NCCCC(NC(=O)OCCCCCn1ccc(=O)[nH]c1=O)C(=O)O` (stereo not given), the EC50 was > 100 µM and the IC50 was > 100 µM.

For `ClC1=NSSC1(Cl)Cl`, the EC50 was > 200 µM and the IC50 turned out to be 27.5 µM.

For `COc1ccc(/C=C(\C#N)c2nc(-c3cc4ccccc4oc3=O)cs2)cc1`, the EC50 is 162 µM and the IC50 is > 200 µM.

As for `COC1OC2COc3ccccc3OC2C(NC(N)=S)C1OC` (stereo not given), the EC50 is > 132 µM and the IC50 was found to be 41.7 µM.

Take `O=C1C[C@H](c2ccccc2)C2(C(=O)c3ccccc3C2=O)[C@H](c2ccccc2)C1`: the EC50 is > 102 µM and the IC50 is > 102 µM.

With `Clc1ccc(/C=N/Nc2nnc3c(n2)[nH]c2ccccc23)cc1`, the EC50 was > 200 µM and the IC50 was > 200 µM.

As for `CCOC(=O)C1=C(NC)OCC1=O`, the result was inactive.

With `O=C(OC1CCC(=C2SCCCS2)[C@H]1C1SCCCS1)c1ccccc1` (stereo not given in full), the result was inactive.

Consider `COc1ccc(/C=N/Nc2nc(C)c(C)s2)cc1`, for which the EC50 was > 100 µM and the IC50 was > 100 µM.

With `O=c1[nH]c(=O)n([C@@H]2C[C@H](CO)[C@H](O)C2)cc1/C=C/Br`, the EC50 is > 759 µM and the IC50 turned out to be 275 µM.

Regarding `O=C(C[P+](c1ccccc1)(c1ccccc1)c1ccccc1)c1ccc([N+](=O)[O-])cc1`, the EC50 was > 200 µM and the IC50 is 19.1 µM.

For the compound `O=[N+]([O-])c1ccc(N2N=NC3C4CCC(C4)C32)cc1` (stereo not given), the EC50 is > 95.5 µM and the IC50 was 43.7 µM.

`O=C(/C=C/c1ccccc1F)c1ccccc1`: the EC50 is > 22.9 µM and the IC50 was > 22.9 µM.

As for `C=C1C2CCC3(CCC4C5(C)CCCC4(C=[N+](CCO)C5)C3C2)C1O` (stereo not given), the result was inactive.

In the case of `NC1CS(=O)(=O)CC1O` (stereo not given), the EC50 was > 200 µM and the IC50 was > 200 µM.

For the compound `O=P(O)(O)C1CCCC(P(=O)(O)O)N1` (stereo not given), the result was inactive.

As to `NS(=O)(=O)c1ccc(N=Nc2c(O)n(-c3ccccc3)n(-c3ccccc3)c2=O)cc1`, the EC50 is > 200 µM and the IC50 was found to be 79.4 µM.

Take `c1ccc2c(c1)C1CCCCCC21N1CCOCC1` (stereo not given): the EC50 is > 200 µM and the IC50 was 170 µM.

Consider `CC1(C)CC(=O)C(/C=N/c2nc(-c3ccc(Br)cc3)cs2)=C(O)C1`, for which the EC50 was > 200 µM and the IC50 came out at 115 µM.

As for `O=c1[nH]c2cnn(-c3ccccc3)c2c(=O)n1OS(=O)(=O)c1ccccc1`, the EC50 was > 200 µM and the IC50 is > 200 µM.

For the compound `N#Cc1cc(NC(=O)c2ccccc2)c(=O)n2c1[nH]c1ccccc12`, the outcome was inactive.

For the compound `Cc1cc2c(c(C=Nc3ccccc3O)c1)OC1(C=C2)Oc2ccccc2C(=O)N1C` (stereo not given), the EC50 is > 200 µM and the IC50 came to 25.1 µM.

Regarding `C#CC(C)(C)Oc1ccc2c(=O)c(-c3ccc(OC)cc3)coc2c1`, the EC50 is > 200 µM and the IC50 came out at 20 µM.

For `Cc1ccccc1N=Nc1c(S(=O)(=O)O)cc2cc(NC(=O)Nc3ccc4c(O)c(N=Nc5ccc6cc(S(=O)(=O)O)ccc6c5)c(S(=O)(=O)O)cc4c3)ccc2c1O`, the result was active.

As for `C=CCCC[P+](c1ccccc1)(c1ccccc1)c1ccccc1`, the EC50 was > 200 µM and the IC50 is 1.15 µM.

As for `C/C(=N\NS(=O)(=O)c1ccc(C)cc1)C(CN1CCOCC1)C(c1ccccc1)c1c(O)c2ccccc2oc1=O` (stereo not given), the EC50 was > 42.7 µM and the IC50 stood at 19.1 µM.

Regarding `Cc1ccc(/C=C2\CCCC(C(NO)c3ccc(C)cc3)C2=NO)cc1` (stereo not given), the EC50 was > 5.75 µM and the IC50 was > 5.75 µM.

With `Cc1nc(C(=O)O)c2ccccc2n1`, the outcome was inactive.

Take `CC(C)OCC(O)COc1ccc2ccc(=O)oc2c1` (stereo not given): the EC50 is > 200 µM and the IC50 is > 200 µM.

Take `O=C(O)c1ccccc1C1c2ccc(Cl)cc2Oc2cc(Cl)ccc21`: the EC50 was > 10 µM and the IC50 is > 10 µM.

Consider `C[N+](C)(C)CC(=O)N/N=C(\C(=O)Nc1ccc(Cl)cc1)C1C(=O)N(c2ccccc2)N=C1N` (stereo not given), for which the EC50 was > 17.8 µM and the IC50 was > 17.8 µM.

Regarding `N#C/C(=C/N1C(=O)/C(=C/c2ccc([N+](=O)[O-])cc2)SC1=S)C(N)=O`, the EC50 was > 200 µM and the IC50 amounted to 16.2 µM.

On to `CC(=O)OCC1OC(n2c(=S)n(-c3ccccc3)c(=S)c3ccccc32)C(OC(C)=O)C(OC(C)=O)C1OC(C)=O` (stereo not given), for which the EC50 was > 16.6 µM and the IC50 was > 16.6 µM.

Take `CC(C)/C(Cl)=N/OC(=O)Nc1ccc(Br)cc1`: the EC50 is > 20 µM and the IC50 came to 3.72 µM.

Consider `O=C(O)[C@@H]1C2C3CC4C2C4C3[C@@H]1C(=O)O`, for which the outcome was inactive.

Regarding `OC(C#CCN1CCCC1)(c1ccccc1)c1ccc(Br)cc1.[C-]#[O+].[C-]#[O+].[C-]#[O+].[C-]#[O+].[C-]#[O+].[C-]#[O+].[Co].[Co]` (stereo not given), the EC50 was > 200 µM and the IC50 was determined as 7.08 µM.

Take `N#CC1=C(N)OC(c2ccc([N+](=O)[O-])cc2)C1(C#N)C#N` (stereo not given): the EC50 is > 200 µM and the IC50 worked out at 10 µM.

As to `CC(C)C(Sc1nc(-c2ccccc2)c(-c2ccccc2)[nH]1)C(=O)NNC(=S)Nc1ccccc1` (stereo not given), the EC50 was > 51.3 µM and the IC50 amounted to 24 µM.

Regarding `CCCCCCCCCCCC(=O)c1c(O)c2ccccc2oc1=O`, the EC50 was > 200 µM and the IC50 stood at 155 µM.

Regarding `O=C1NC(N2CCCCC2)=N/C1=C\c1ccccc1`, the EC50 was > 200 µM and the IC50 is > 200 µM.

As to `CN1C(=O)C(=O)N2c3ccc(Cl)cc3C3(c4ccccc4)N=CC12O3` (stereo not given), the EC50 is > 36.3 µM and the IC50 turned out to be 5.5 µM.

Regarding `COC(=O)C1=COC(O)C2CCCC12` (stereo not given), the EC50 is > 1260 µM and the IC50 was found to be 107 µM.

Consider `Cc1ccc(Nc2nc(N)[nH]c(=O)c2N=O)cc1`, for which the EC50 was > 200 µM and the IC50 worked out at 14.8 µM.

As to `O=C1CN=C(c2ccccn2)c2cc(Cl)ccc2N1`, the EC50 was > 479 µM and the IC50 was 72.4 µM.

For the compound `NC(=O)CNC(=O)c1ccccc1SC(=O)OCCCCCl`, the concentration for a half-maximal effect (EC50) is 26.3 µM and the IC50 was > 200 µM.

For the compound `Cn1c(=O)c2nc(-c3ccccc3)nnc2n(CCO)c1=O`, the EC50 is > 200 µM and the IC50 amounted to 41.7 µM.

As for `CC(C)C1CC(CO)(CNc2cc(Cl)nc(N)n2)C1` (stereo not given), the EC50 is > 20 µM and the IC50 was 19.5 µM.

Consider `NC(N)=NS(=O)(=O)c1ccc(NCc2cccc3c(=O)c4ccc(Cl)cc4oc23)cc1`, for which the EC50 is > 25.1 µM and the IC50 stood at 2.19 µM.

For `COc1ccc(C(=O)N2CCN(c3ccc4c(c3)OCC(=O)N4)CC2)cc1OC`, the EC50 was > 200 µM and the IC50 is > 200 µM.

With `O=C(NC1C=Nc2ccccc2NC1=O)c1ccc(Cl)cc1` (stereo not given), the EC50 is > 200 µM and the IC50 is > 200 µM.

Turning to `O=[N+]([O-])c1nccn1CCCNc1c2ccccc2nc2ccccc12`, the result was inactive.

Consider `O=Nc1c(O)c2ccccc2[nH]c1=O`, for which the EC50 is > 200 µM and the IC50 came to 45.7 µM.

In the case of `COc1cc2c(=O)c3ccccc3oc2c(O)c1OC`, the EC50 is > 200 µM and the IC50 is > 200 µM.

With `C(=Nc1cnc2ccccc2c1)c1ccncc1`, the EC50 was > 288 µM and the IC50 came out at 66.1 µM.

For the compound `COc1cc2c(c3c1[C@@H](O)[C@H](C)[C@@H](C)O3)C=CC(C)(C)O2`, the EC50 was > 200 µM and the IC50 is 79.4 µM.

As to `S=c1oc(CCCCCCCCc2nn(CNc3ccc(Cl)cc3)c(=S)o2)nn1CNc1ccc(Cl)cc1`, the result was inactive.

As to `[N-]=[N+]=Nc1ccc2c(c1)Sc1ccccc1N2CCCCCl`, the EC50 was > 200 µM and the IC50 came out at 26.9 µM.

Consider `CC[CH2][Sn]([CH2]CC)([O]C(=O)c1cccnc1SC)[O][Sn]([CH2]CC)([CH2]CC)[O]C(=O)c1cccnc1SC`, for which the EC50 is > 24.5 µM and the IC50 turned out to be 5.62 µM.

In the case of `CC1=Nc2ccccc2N=C(c2c(O)c3c(ccc4ccccc43)oc2=O)C1`, the EC50 was > 200 µM and the IC50 is 20 µM.

In the case of `O=C1c2ccccc2C(=O)N1CC(CN1C(=O)c2ccccc2C1=O)(C(=O)OCc1ccccc1)C(=O)OCc1ccccc1`, the EC50 is > 200 µM and the IC50 was > 200 µM.

With `CCOP(=O)(OCC)c1cc(-c2ccccc2)ccc1N`, the EC50 was > 200 µM and the IC50 is > 200 µM.

On to `COC12OCCN(C)C1=CC(=O)C1N=NCC12` (stereo not given), for which the outcome was inactive.

Regarding `Nc1ncnc2nc(-c3ccc(C[P+](c4ccccc4)(c4ccccc4)c4ccccc4)cc3)[nH]c12`, the EC50 is > 200 µM and the IC50 was > 200 µM.

In the case of `CCCCCCCCCCCCSS(=O)(=O)c1ccccc1`, the EC50 was > 75.9 µM and the IC50 was > 75.9 µM.

On to `CC1=CC[P+](Cc2ccccc2)(c2ccccc2)C1` (stereo not given), for which the EC50 is > 724 µM and the IC50 came to 40.7 µM.

`Cc1nc2cc(C(=O)NC=O)c3n[nH]nc3c2n1C`: the EC50 is > 200 µM and the IC50 was > 200 µM.

For the compound `C=C1CCC2CC1C(C(=O)c1c[nH]c3ccccc13)=NC2(C)C` (stereo not given), the EC50 is > 407 µM and the IC50 is > 407 µM.

On to `O=C(CN1CCCCC1)CC(O)(C(F)(F)F)C(F)(F)F`, for which the EC50 is > 200 µM and the IC50 was found to be 66.1 µM.
